Key:
Assay type in all cases: binding
CLK2 = molecular target: T1, CLK2 (Homo sapiens, UniProt P49760); assay: ScanMAX Kinase analysis panel, CLK2; conditions: 1 μM in DMSO; <35% considered inhibitory; read-out: percent control (% control), CLK2
T1 construct: purchased DiscoverX Corp. (ScanMAX Kinase analysis panel, service)
Description: (§1) Specifically, the enzyme (kinase) selectivity of Example compounds 238, 361, 411, 157, 161, 228, and 158 selected from the Example compounds of the present invention was determined by commissioning DiscoverX Corp., and an experiment was performed using a ScanMAX™ Kinase analysis panel. In this case, a concentration of the drug with which the enzymes were treated was 1 μM in DMSO, and the percent control (% control) was defined in the same manner as in the following Expression 1.
(§2) (Example Compound−Positive Control)/(Negative Control−Positive Control)×100 [Expression 1]
(§3) wherein the positive control represents a compound having a percent control of 0%, and the negative control represents DMSO having a percent control of 100%. For the enzyme selectivity of the present invention, it was considered that the compound has an inhibitory activity on each of the enzymes when the percent control for the corresponding enzyme was <35% (i. e., less than 35%).

CLK4 = molecular target: T2, CLK4 (Homo sapiens, UniProt Q9HAZ1); assay: ScanMAX Kinase analysis panel, CLK4; conditions: 1 μM in DMSO; <35% considered inhibitory; read-out: percent control (% control), CLK4
T2 construct: purchased DiscoverX Corp. (ScanMAX Kinase analysis panel, service)
Description: as §1, §2, §3

CSNK1D = molecular target: T3, CSNK1D (Homo sapiens, UniProt P48730); assay: ScanMAX Kinase analysis panel, CSNK1D; conditions: 1 μM in DMSO; <35% considered inhibitory; read-out: percent control (% control), CSNK1D
T3 construct: purchased DiscoverX Corp. (ScanMAX Kinase analysis panel, service)
Description: as §1, §2, §3

DYRK1B = molecular target: T4, DYRK1B (Homo sapiens, UniProt Q9Y463); assay: ScanMAX Kinase analysis panel, DYRK1B; conditions: 1 μM in DMSO; <35% considered inhibitory; read-out: percent control (% control), DYRK1B
T4 construct: purchased DiscoverX Corp. (ScanMAX Kinase analysis panel, service)
Description: as §1, §2, §3

PHKG1 = molecular target: T5, PHKG1 (Homo sapiens, UniProt Q16816); assay: ScanMAX Kinase analysis panel, PHKG1; conditions: 1 μM in DMSO; <35% considered inhibitory; read-out: percent control (% control), PHKG1
T5 construct: purchased DiscoverX Corp. (ScanMAX Kinase analysis panel, service)
Description: as §1, §2, §3

PLK4 = molecular target: T6, PLK4 (Homo sapiens, UniProt O00444); assay: ScanMAX Kinase analysis panel, PLK4; conditions: 1 μM in DMSO; <35% considered inhibitory; read-out: percent control (% control), PLK4
T6 construct: purchased DiscoverX Corp. (ScanMAX Kinase analysis panel, service)
T6 sequence (O00444 1-970): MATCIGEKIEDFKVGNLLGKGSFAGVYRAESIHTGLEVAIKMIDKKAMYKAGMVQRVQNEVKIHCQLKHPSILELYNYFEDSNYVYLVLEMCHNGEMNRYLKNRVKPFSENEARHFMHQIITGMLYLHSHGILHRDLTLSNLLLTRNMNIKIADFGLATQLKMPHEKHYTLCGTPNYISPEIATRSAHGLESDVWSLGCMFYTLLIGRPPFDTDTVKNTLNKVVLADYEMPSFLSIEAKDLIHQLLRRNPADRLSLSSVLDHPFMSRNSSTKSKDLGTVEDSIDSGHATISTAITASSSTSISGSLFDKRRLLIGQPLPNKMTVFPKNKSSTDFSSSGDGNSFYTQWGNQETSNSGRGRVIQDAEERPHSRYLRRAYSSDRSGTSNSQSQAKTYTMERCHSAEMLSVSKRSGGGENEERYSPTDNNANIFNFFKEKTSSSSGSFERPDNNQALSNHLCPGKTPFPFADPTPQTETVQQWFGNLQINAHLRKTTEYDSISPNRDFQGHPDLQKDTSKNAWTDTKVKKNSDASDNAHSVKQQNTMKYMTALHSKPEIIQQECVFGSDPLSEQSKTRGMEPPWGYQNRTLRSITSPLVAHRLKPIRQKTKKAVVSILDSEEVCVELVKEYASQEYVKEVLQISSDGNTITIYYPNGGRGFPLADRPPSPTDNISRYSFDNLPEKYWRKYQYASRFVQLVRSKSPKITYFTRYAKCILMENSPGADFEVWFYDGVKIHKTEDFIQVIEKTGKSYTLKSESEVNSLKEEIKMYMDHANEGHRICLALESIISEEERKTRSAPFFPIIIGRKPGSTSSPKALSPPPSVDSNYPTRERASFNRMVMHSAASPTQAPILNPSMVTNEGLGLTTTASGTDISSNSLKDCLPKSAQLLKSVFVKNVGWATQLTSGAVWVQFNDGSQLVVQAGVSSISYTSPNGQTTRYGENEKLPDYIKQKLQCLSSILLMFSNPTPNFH
Description: as §1, §2, §3

PYK2 = molecular target: T7, PYK2 (Homo sapiens, UniProt Q14289); assay: ScanMAX Kinase analysis panel, PYK2; conditions: 1 μM in DMSO; <35% considered inhibitory; read-out: percent control (% control), PYK2
T7 construct: purchased DiscoverX Corp. (commissioned ScanMAX panel service)
Description: as §1, §2, §3

LRRK2 (G2019S) = LRRK2 (G2019S) (Homo sapiens, UniProt Q5S007, G2019S); assay: ScanMAX Kinase analysis panel, LRRK2 (G2019S); design: purchased DiscoverX Corp. (ScanMAX Kinase analysis panel, service); conditions: 1 μM in DMSO; <35% considered inhibitory; read-out: percent control (% control), LRRK2 (G2019S)
Description: as §1, §2, §3

T2 sequence (Q9HAZ1 whole entry): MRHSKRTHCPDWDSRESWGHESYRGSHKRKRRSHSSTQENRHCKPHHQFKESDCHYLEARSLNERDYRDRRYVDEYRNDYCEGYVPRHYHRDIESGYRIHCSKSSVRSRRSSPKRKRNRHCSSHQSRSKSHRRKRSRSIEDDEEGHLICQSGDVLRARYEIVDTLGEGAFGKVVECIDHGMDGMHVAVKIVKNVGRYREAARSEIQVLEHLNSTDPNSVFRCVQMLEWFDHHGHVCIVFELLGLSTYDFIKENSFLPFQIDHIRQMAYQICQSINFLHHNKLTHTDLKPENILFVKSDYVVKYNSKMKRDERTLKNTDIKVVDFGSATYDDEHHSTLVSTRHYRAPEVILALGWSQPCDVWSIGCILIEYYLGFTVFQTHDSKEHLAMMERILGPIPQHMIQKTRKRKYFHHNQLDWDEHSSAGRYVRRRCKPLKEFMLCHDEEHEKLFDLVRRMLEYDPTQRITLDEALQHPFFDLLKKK
T1 sequence (P49760 whole entry): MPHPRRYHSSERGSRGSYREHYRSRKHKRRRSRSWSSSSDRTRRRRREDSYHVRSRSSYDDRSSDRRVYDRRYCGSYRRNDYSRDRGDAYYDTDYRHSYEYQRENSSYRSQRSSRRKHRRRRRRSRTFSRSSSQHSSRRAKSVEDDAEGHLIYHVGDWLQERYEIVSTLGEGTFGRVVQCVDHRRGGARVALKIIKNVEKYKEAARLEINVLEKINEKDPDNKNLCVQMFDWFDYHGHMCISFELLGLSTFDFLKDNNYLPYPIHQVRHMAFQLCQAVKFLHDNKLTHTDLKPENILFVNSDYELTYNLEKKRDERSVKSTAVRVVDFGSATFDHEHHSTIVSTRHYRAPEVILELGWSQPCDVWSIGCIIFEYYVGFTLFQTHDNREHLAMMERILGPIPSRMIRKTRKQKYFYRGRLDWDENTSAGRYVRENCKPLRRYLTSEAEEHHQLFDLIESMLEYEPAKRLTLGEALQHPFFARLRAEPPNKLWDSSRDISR
T3 sequence (P48730 whole entry): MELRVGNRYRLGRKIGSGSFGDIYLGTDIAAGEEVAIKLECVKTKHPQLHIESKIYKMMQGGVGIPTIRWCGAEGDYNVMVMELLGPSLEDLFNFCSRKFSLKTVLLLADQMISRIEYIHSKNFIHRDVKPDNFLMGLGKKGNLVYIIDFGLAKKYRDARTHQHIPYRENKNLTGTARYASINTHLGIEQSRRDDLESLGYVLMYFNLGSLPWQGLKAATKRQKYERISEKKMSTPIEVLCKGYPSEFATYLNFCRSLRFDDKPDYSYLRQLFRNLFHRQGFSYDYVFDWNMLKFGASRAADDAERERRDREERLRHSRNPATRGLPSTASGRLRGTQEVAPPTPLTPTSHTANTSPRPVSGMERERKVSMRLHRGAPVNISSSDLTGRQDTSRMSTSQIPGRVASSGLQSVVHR
Sequence of LRRK2 (G2019S) (Q5S007 whole entry G2019S): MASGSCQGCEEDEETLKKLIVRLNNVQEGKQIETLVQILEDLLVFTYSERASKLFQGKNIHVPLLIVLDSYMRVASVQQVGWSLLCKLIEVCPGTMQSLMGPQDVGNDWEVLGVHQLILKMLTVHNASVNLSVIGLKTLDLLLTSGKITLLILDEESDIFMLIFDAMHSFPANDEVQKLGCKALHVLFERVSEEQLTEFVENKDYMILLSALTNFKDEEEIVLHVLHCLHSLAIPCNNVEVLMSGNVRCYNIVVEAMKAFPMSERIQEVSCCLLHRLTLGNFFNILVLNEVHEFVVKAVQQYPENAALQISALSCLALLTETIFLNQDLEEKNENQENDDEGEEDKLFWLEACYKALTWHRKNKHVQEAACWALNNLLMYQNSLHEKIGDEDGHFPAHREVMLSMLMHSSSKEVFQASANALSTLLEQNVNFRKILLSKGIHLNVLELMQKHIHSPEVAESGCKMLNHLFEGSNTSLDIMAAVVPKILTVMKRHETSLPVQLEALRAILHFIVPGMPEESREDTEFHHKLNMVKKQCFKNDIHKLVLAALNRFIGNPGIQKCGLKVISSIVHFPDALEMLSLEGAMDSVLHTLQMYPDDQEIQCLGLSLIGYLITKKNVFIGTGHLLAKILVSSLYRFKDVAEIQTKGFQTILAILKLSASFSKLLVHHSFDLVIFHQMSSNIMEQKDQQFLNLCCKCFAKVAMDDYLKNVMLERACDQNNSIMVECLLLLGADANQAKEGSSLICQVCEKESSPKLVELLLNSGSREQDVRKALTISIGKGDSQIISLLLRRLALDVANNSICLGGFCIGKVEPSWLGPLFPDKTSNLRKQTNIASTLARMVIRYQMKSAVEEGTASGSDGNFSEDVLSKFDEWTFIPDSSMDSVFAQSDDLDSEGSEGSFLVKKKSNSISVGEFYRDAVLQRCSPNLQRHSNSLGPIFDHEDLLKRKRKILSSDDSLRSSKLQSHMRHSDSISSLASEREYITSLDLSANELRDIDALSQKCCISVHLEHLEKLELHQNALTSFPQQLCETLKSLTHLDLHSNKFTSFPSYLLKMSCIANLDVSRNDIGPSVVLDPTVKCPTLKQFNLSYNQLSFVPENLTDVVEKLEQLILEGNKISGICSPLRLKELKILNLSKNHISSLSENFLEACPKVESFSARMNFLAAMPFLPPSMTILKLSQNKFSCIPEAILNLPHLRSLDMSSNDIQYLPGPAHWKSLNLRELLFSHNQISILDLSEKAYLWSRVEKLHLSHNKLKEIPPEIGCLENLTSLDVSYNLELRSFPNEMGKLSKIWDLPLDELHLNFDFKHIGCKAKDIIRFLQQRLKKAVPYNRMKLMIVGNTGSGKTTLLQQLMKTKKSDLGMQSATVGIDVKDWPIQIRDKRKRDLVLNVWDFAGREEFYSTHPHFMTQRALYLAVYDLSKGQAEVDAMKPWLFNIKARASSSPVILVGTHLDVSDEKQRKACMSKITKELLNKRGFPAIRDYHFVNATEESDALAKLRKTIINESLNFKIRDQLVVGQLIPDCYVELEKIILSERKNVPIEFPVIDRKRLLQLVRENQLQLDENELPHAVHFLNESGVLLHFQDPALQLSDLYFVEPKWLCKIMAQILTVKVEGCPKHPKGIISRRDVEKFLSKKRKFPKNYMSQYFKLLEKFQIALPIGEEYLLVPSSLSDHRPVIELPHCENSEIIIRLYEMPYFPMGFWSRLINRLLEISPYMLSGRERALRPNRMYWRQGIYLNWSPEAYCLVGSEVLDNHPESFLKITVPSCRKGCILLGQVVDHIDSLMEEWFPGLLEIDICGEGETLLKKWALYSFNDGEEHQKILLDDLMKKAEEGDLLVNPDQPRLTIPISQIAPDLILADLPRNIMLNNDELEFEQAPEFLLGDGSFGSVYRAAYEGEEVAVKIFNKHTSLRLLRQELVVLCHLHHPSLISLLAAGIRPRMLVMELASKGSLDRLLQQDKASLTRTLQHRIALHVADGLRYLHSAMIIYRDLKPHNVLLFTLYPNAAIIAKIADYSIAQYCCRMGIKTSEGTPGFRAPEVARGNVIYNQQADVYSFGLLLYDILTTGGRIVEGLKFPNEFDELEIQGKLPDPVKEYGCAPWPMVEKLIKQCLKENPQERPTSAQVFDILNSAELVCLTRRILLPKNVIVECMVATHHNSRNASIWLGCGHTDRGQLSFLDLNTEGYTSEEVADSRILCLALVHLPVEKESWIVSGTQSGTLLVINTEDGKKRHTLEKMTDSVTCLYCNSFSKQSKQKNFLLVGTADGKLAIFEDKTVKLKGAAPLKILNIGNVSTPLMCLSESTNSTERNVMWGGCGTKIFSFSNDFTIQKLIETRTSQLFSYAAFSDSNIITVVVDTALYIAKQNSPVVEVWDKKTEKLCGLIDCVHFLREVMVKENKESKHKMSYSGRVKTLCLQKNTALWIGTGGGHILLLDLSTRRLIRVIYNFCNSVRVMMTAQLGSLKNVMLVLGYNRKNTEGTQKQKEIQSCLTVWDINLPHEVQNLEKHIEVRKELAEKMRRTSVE
T5 sequence (Q16816 whole entry): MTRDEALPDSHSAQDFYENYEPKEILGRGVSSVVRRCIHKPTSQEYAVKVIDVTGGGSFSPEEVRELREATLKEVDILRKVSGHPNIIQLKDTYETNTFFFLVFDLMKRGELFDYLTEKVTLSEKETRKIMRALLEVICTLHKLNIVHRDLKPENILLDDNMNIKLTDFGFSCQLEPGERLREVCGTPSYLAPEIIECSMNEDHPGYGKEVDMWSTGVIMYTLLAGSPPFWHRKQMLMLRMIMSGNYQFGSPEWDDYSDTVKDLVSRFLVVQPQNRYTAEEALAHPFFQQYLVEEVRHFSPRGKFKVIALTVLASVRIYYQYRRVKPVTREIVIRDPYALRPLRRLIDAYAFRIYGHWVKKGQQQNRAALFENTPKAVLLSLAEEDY
T4 sequence (Q9Y463 whole entry): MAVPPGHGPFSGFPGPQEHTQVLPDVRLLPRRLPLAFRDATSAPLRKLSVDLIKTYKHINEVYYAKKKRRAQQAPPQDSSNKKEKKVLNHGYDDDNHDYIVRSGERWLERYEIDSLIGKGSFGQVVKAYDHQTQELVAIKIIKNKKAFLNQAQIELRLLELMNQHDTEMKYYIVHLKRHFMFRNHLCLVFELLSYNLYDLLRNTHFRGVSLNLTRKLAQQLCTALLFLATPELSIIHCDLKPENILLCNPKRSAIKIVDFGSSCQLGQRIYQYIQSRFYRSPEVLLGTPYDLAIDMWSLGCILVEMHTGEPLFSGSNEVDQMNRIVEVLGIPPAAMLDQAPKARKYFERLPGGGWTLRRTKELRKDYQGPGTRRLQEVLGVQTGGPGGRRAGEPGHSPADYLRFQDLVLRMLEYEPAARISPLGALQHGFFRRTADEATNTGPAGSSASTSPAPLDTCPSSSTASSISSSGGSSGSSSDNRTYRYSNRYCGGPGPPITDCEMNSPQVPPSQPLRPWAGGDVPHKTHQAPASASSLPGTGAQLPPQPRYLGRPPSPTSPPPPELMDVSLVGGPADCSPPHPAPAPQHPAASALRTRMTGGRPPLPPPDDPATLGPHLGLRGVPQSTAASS

SMILES	remaining binding at 1 µM (CLK2) [%]	remaining binding at 1 µM (CLK4) [%]	remaining binding at 1 µM (CSNK1D) [%]	remaining binding at 1 µM (DYRK1B) [%]	remaining binding at 1 µM (PHKG1) [%]	remaining binding at 1 µM (PLK4) [%]	remaining binding at 1 µM (PYK2) [%]	remaining binding at 1 µM (LRRK2 (G2019S)) [%]
CNc1nc(Nc2ccc(S(=O)(=O)N3CCC(N4CCOCC4)CC3)cc2OC)nc2[nH]cc(C(F)(F)F)c12 [Example 157, N^2-(2-methoxy-4-((4-morpholinopiperidin-1-yl)sulfonyl)phenyl)-N^4-methyl-5-(trifluoromethyl)-7H-pyrrolo[2,3-d]pyrimidine-2,4-diamine 2,2,2-trifluoroacetate]	2.9	0.55	2.9	0	7.8	10	5.5	1.6
CCNc1nc(Nc2ccc(S(=O)(=O)N3CCC(N4CCOCC4)CC3)cc2OC)nc2[nH]cc(C(F)(F)F)c12 [Example 158, N^4-ethyl-N^2-(2-methoxy-4-((4-morpholinopiperidin-1-yl)sulfonyl)phenyl)-5-(trifluoromethyl)-7H-pyrrolo[2,3-d]pyrimidine-2,4-diamine 2,2,2-trifluoroacetate]	22	0.3	5.3	0.8	25	26	3	3.6
CCCNc1nc(Nc2ccc(S(=O)(=O)N3CCC(N4CCOCC4)CC3)cc2OC)nc2[nH]cc(C(F)(F)F)c12 [Example 161, N^2-(2-methoxy-4-((4-morpholinopiperidin-1-yl)sulfonyl)phenyl)-N^4-propyl-5-(trifluoromethyl)-7H-pyrrolo[2,3-d]pyrimidine-2,4-diamine]	3.9	0.65	15	0	24	11	1.3	0
O=C(c1ccc(Nc2nc(C3CC3)c3c(C(F)(F)F)c[nH]c3n2)c2c1OCCO2)N1CCC(N2CCOCC2)CC1 [Example 228, (8-((4-cyclopropyl-5-(trifluoromethyl)-7H-pyrrolo[2,3-d]pyrimidin-2-yl)amino)-2,3-dihydrobenzo[b][1,4]dioxin-5-yl)(4-morpholinopiperidin-1-yl)methanone]	5.5	0.05	45	0	30	3.2	22	1.1

Now from value to compound:

remaining binding at 1 µM (CLK2) [%]	remaining binding at 1 µM (CLK4) [%]	remaining binding at 1 µM (CSNK1D) [%]	remaining binding at 1 µM (DYRK1B) [%]	remaining binding at 1 µM (PHKG1) [%]	remaining binding at 1 µM (PLK4) [%]	remaining binding at 1 µM (PYK2) [%]	remaining binding at 1 µM (LRRK2 (G2019S)) [%]	SMILES
0.65	3.6	16	0	3.6	7.8	5.2	0.05	CNc1nc(Nc2ccc(C(=O)N3CCC(N4CCOCC4)CC3)c3c2OCCO3)nc2[nH]cc(C(F)(F)F)c12 [Example 238, (8-((4-(methylamino)-5-(trifluoromethyl)-7H-pyrrolo[2,3-d]pyrimidin-2-yl)amino)-2,3-dihydrobenzo[b][1,4]dioxin-5-yl)(4-morpholinopiperidin-1-yl)methanone]
3.9	2.8	3.9	6.1	9.7	0.3	2.2	0	C=CCNc1nc(Nc2ccc(S(=O)(=O)N3CCC(N4CCOCC4)CC3)cc2OC)nc2[nH]cc(C#N)c12 [Example 361, 4-(allylamino)-2-((2-methoxy-4-((4-morpholino-piperidin-1-yl)sulfonyl)phenyl)amino)-7H-pyrrolo[2,3-d]pyrimidine-5-carbonitrile]
0	1.4	14	4.5	17	23	13	1.3	CNc1nc(Nc2ccc(P3(=O)CCN(C4CC4)CC3)cc2OC)nc2[nH]cc(C(F)(F)F)c12 [Example 411, 1-cyclopropyl-4-(3-methoxy-4-((4-(methylamino)-5-(trifluoromethyl)-7H-pyrrolo[2,3-d]pyrimidin-2-yl)amino)phenyl)-1,4-azaphosphinane-4-oxide]

Source: patent US20230066011A1, “PYRROLOPYRIMIDINE DERIVATIVE, AND PHARMACEUTICAL COMPOSITION FOR PREVENTING OR TREATING PROTEIN KINASE-RELATED DISEASE COMPRISING SAME AS ACTIVE INGREDIENT” (VORONOI CO., LTD., priority 2019, published 2023)
